Test results: patent US6737383B1, “Herbicidal oxadiazolidines” (priority 1999, dated 2004)

Assays:
[1] = system: velvetleaf; experiment: Test B pre/postemergence velvetleaf; assay type: in vivo, Abutilon theophrasti; details: for Velvetleaf plant response rating: scale of 0 to 10 where 0 is no effect and 10 is complete control
Method in brief: (§1)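 Test chemicals in a non-phytotoxic solvent mixture with surfactant were sprayed preemergence onto planted seeds and postemergence onto plants 2 to 18 cm tall (1- to 4-leaf stage). After twelve to sixteen days in a greenhouse, injury was visually rated against untreated controls from 0 (no effect) to 10 (complete control).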

[2] = system: bedstraw; experiment: Test B pre/postemergence bedstraw; assay type: in vivo, Galium aparine; details: for Bedstraw plant response rating: scale of 0 to 10 where 0 is no effect and 10 is complete control
Method in brief: as §1

[3] = system: pigweed; experiment: Test B pre/postemergence pigweed; assay type: in vivo, Amaranthus retroflexus; details: for Redroot pigweed plant response rating: scale of 0 to 10 where 0 is no effect and 10 is complete control
Method in brief: as §1

[4] = system: wild oat; experiment: Test B pre/postemergence wild oat; assay type: in vivo, Avena fatua; details: for Wild oats plant response rating: scale of 0 to 10 where 0 is no effect and 10 is complete control
Method in brief: as §1

[5] = system: morningglory; experiment: Test B pre/postemergence morningglory; assay type: in vivo, Ipomoea hederacea; details: for Morningglory plant response rating: scale of 0 to 10 where 0 is no effect and 10 is complete control
Method in brief: as §1

[6] = system: giant foxtail; experiment: Test B pre/postemergence giant foxtail; assay type: in vivo, Setaria faberii; details: for Giant foxtail plant response rating: scale of 0 to 10 where 0 is no effect and 10 is complete control
Method in brief: as §1

[7] = system: blackgrass; experiment: Test B pre/postemergence blackgrass; assay type: in vivo, Alopecurus myosuroides; details: for Blackgrass plant response rating: scale of 0 to 10 where 0 is no effect and 10 is complete control
Method in brief: as §1

[8] = system: soybean; experiment: Test B pre/postemergence soybean; assay type: in vivo, Glycine max; details: for Soybean plant response rating: scale of 0 to 10 where 0 is no effect and 10 is complete control
Method in brief: as §1

[9] = system: sugar beet; experiment: Test B pre/postemergence sugar beet; assay type: in vivo, Beta vulgaris; details: for Sugarbeets plant response rating: scale of 0 to 10 where 0 is no effect and 10 is complete control
Method in brief: as §1

[10] = system: surinam grass; experiment: Test B pre/postemergence surinam grass; assay type: in vivo, Brachiaria decumbens; details: for B. signalgrass plant response rating: scale of 0 to 10 where 0 is no effect and 10 is complete control
Method in brief: as §1

[11] = system: purple nutsedge; experiment: Test B pre/postemergence purple nutsedge; assay type: in vivo, Cyperus rotundus; details: for Nutsedge plant response rating: scale of 0 to 10 where 0 is no effect and 10 is complete control
Method in brief: as §1

[12] = system: wheat; experiment: Test B pre/postemergence wheat; assay type: in vivo, Triticum aestivum; details: for Wheat plant response rating: scale of 0 to 10 where 0 is no effect and 10 is complete control
Method in brief: as §1

[13] = system: cocklebur; experiment: Test B pre/postemergence cocklebur; assay type: in vivo, Xanthium strumarium; details: for Cocklebur plant response rating: scale of 0 to 10 where 0 is no effect and 10 is complete control
Method in brief: as §1

[14] = system: rape; experiment: Test B pre/postemergence rape; assay type: in vivo, Brassica napus; details: for Rape plant response rating: scale of 0 to 10 where 0 is no effect and 10 is complete control
Method in brief: as §1

[15] = system: corn; experiment: Test B pre/postemergence corn; assay type: in vivo, Zea mays; details: for Corn plant response rating: scale of 0 to 10 where 0 is no effect and 10 is complete control
Method in brief: as §1

[16] = system: crabgrass; experiment: Test B pre/postemergence crabgrass; assay type: in vivo, Digitaria sanguinalis; details: for Crabgrass plant response rating: scale of 0 to 10 where 0 is no effect and 10 is complete control
Method in brief: as §1

[17] = Postemergence, Rate 125 g/ha, scale 0 to 10, 0 is no effect, 10 is complete control
[18] = Postemergence, Rate 250 g/ha, scale 0 to 10, 0 is no effect, 10 is complete control
[19] = Preemergence, Rate 62 g/ha, scale 0 to 10 (0 no effect, 10 complete control)
[20] = Rate 500 g/ha, Postemergence, scale 0 to 10, 0 no effect, 10 complete control

**Q.** Which results are given for CC(C)N(C(=O)n1oc(=O)n(C2(C)CC2)c1=O)c1ccc(Cl)cc1 [Compound 361]?
**A.** Plant response rating, Velvetleaf [1, 17]: 0; Plant response rating, Velvetleaf [1, 18]: 0; Plant response rating, Velvetleaf [1, 19]: 0; Velvetleaf plant response rating (0 to 10 scale) ([1]; Preemergence, Rate 125 g/ha): 0; Velvetleaf plant response rating ([1]; Preemergence, Rate 250 g/ha): 4; Velvetleaf plant response rating ([1]; Preemergence, Rate 500 g/ha): 5; Velvetleaf plant response rating ([1]; Rate 62 g/ha, Postemergence): 0; Plant response rating, Velvetleaf [1, 20]: 3; Plant response rating, Bedstraw [2, 17]: 7; Plant response rating, Bedstraw [2, 18]: 8; Plant response rating, Bedstraw [2, 19]: 0; Bedstraw plant response rating (0 to 10 scale) ([2]; Preemergence, Rate 125 g/ha): 0; Bedstraw plant response rating ([2]; Preemergence, Rate 250 g/ha): 0; Bedstraw plant response rating ([2]; Preemergence, Rate 500 g/ha): 2; Bedstraw plant response rating ([2]; Rate 62 g/ha, Postemergence): 7; Plant response rating, Bedstraw [2, 20]: 8; Plant response rating, Redroot pigweed [3, 17]: 5; Plant response rating, Redroot pigweed [3, 18]: 6; Plant response rating, Redroot pigweed [3, 19]: 1; Redroot pigweed plant response rating (0 to 10 scale) ([3]; Preemergence, Rate 125 g/ha): 7; Redroot pigweed plant response rating ([3]; Preemergence, Rate 250 g/ha): 8; Redroot pigweed plant response rating ([3]; Preemergence, Rate 500 g/ha): 10; Redroot pigweed plant response rating ([3]; Rate 62 g/ha, Postemergence): 3; Plant response rating, Redroot pigweed [3, 20]: 7; Plant response rating, Wild oats [4, 17]: 2; Plant response rating, Wild oats [4, 18]: 6; Plant response rating, Wild oats [4, 19]: 7; Wild oats plant response rating (0 to 10 scale) ([4]; Preemergence, Rate 125 g/ha): 8; Wild oats plant response rating ([4]; Preemergence, Rate 250 g/ha): 8; Wild oats plant response rating ([4]; Preemergence, Rate 500 g/ha): 10; Wild oats plant response rating ([4]; Rate 62 g/ha, Postemergence): 0; Plant response rating, Wild oats [4, 20]: 6; Plant response rating, Morningglory [5, 17]: 2; Plant response rating, Morningglory [5, 18]: 7; Plant response rating, Morningglory [5, 19]: 0; Morningglory plant response rating (0 to 10 scale) ([5]; Preemergence, Rate 125 g/ha): 0; Morningglory plant response rating ([5]; Preemergence, Rate 250 g/ha): 0; Morningglory plant response rating ([5]; Preemergence, Rate 500 g/ha): 0; Morningglory plant response rating ([5]; Rate 62 g/ha, Postemergence): 1; Plant response rating, Giant foxtail [6, 17]: 4; Plant response rating, Giant foxtail [6, 18]: 5; Plant response rating, Giant foxtail [6, 19]: 7; Giant foxtail plant response rating (0 to 10 scale) ([6]; Preemergence, Rate 125 g/ha): 9; Giant foxtail plant response rating ([6]; Preemergence, Rate 250 g/ha): 10; Giant foxtail plant response rating ([6]; Preemergence, Rate 500 g/ha): 10; Giant foxtail plant response rating ([6]; Rate 62 g/ha, Postemergence): 1; Plant response rating, Giant foxtail [6, 20]: 5; Plant response rating, Blackgrass [7, 17]: 7; Plant response rating, Blackgrass [7, 18]: 8; Plant response rating, Blackgrass [7, 19]: 3; Blackgrass plant response rating (0 to 10 scale) ([7]; Preemergence, Rate 125 g/ha): 8; Blackgrass plant response rating ([7]; Preemergence, Rate 250 g/ha): 10; Blackgrass plant response rating ([7]; Preemergence, Rate 500 g/ha): 10; Blackgrass plant response rating ([7]; Rate 62 g/ha, Postemergence): 5; Plant response rating, Blackgrass [7, 20]: 8; Plant response rating, Soybean [8, 17]: 4; Plant response rating, Soybean [8, 18]: 5; Plant response rating, Soybean [8, 19]: 0; Soybean plant response rating (0 to 10 scale) ([8]; Preemergence, Rate 125 g/ha): 0; Soybean plant response rating ([8]; Preemergence, Rate 250 g/ha): 0; Soybean plant response rating ([8]; Preemergence, Rate 500 g/ha): 1; Soybean plant response rating ([8]; Rate 62 g/ha, Postemergence): 2; Plant response rating, Soybean [8, 20]: 5; Plant response rating, Sugarbeets [9, 17]: 5; Plant response rating, Sugarbeets [9, 18]: 5; Plant response rating, Sugarbeets [9, 19]: 0; Sugarbeets plant response rating (0 to 10 scale) ([9]; Preemergence, Rate 125 g/ha): 2; Sugarbeets plant response rating ([9]; Preemergence, Rate 250 g/ha): 6; Sugarbeets plant response rating ([9]; Preemergence, Rate 500 g/ha): 6; Sugarbeets plant response rating ([9]; Rate 62 g/ha, Postemergence): 2; Plant response rating, Sugarbeets [9, 20]: 6; Plant response rating, B. signalgrass [10, 17]: 0; Plant response rating, B. signalgrass [10, 18]: 3; Plant response rating, B. signalgrass [10, 19]: 3; B. signalgrass plant response rating (0 to 10 scale, 0 is no effect, 10 is complete control) ([10]; Preemergence, Rate 125 g/ha): 4; B. signalgrass plant response rating ([10]; Preemergence, Rate 250 g/ha): 4; B. signalgrass plant response rating ([10]; Preemergence, Rate 500 g/ha): 6; B. signalgrass plant response rating ([10]; Rate 62 g/ha, Postemergence): 0; Plant response rating, B. signalgrass [10, 20]: 4; Plant response rating, Nutsedge [11, 17]: 0; Plant response rating, Nutsedge [11, 18]: 0; Plant response rating, Nutsedge [11, 19]: 0; Nutsedge plant response rating (0 to 10 scale) ([11]; Preemergence, Rate 125 g/ha): 0; Nutsedge plant response rating ([11]; Preemergence, Rate 250 g/ha): 0; Nutsedge plant response rating ([11]; Preemergence, Rate 500 g/ha): 0; Nutsedge plant response rating ([11]; Rate 62 g/ha, Postemergence): 0; Plant response rating, Nutsedge [11, 20]: 0; Plant response rating, Wheat [12, 17]: 0; Plant response rating, Wheat [12, 18]: 0; Plant response rating, Wheat [12, 19]: 0; Wheat plant response rating (0 to 10 scale) ([12]; Preemergence, Rate 125 g/ha): 0; Wheat plant response rating ([12]; Preemergence, Rate 250 g/ha): 2; Wheat plant response rating ([12]; Preemergence, Rate 500 g/ha): 6; Wheat plant response rating ([12]; Rate 62 g/ha, Postemergence): 0; Plant response rating, Wheat [12, 20]: 2; Plant response rating, Cocklebur [13, 17]: 0; Plant response rating, Cocklebur [13, 18]: 0; Plant response rating, Cocklebur [13, 19]: 0; Cocklebur plant response rating (0 to 10 scale) ([13]; Preemergence, Rate 125 g/ha): 0; Cocklebur plant response rating ([13]; Preemergence, Rate 250 g/ha): 0; Cocklebur plant response rating ([13]; Preemergence, Rate 500 g/ha): 0; Cocklebur plant response rating ([13]; Rate 62 g/ha, Postemergence): 0; Plant response rating, Cocklebur [13, 20]: 2; Plant response rating, Rape [14, 17]: 3; Plant response rating, Rape [14, 18]: 3; Plant response rating, Rape [14, 19]: 4; Rape plant response rating (0 to 10 scale) ([14]; Preemergence, Rate 125 g/ha): 5; Rape plant response rating ([14]; Preemergence, Rate 250 g/ha): 5; Rape plant response rating ([14]; Preemergence, Rate 500 g/ha): 6; Rape plant response rating ([14]; Rate 62 g/ha, Postemergence): 2; Plant response rating, Rape [14, 20]: 4; Plant response rating, Corn [15, 17]: 0; Plant response rating, Corn [15, 18]: 0; Plant response rating, Corn [15, 19]: 0; Corn plant response rating (0 to 10 scale) ([15]; Preemergence, Rate 125 g/ha): 0; Corn plant response rating ([15]; Preemergence, Rate 250 g/ha): 1; Corn plant response rating ([15]; Preemergence, Rate 500 g/ha): 6; Corn plant response rating ([15]; Rate 62 g/ha, Postemergence): 0; Plant response rating, Corn [15, 20]: 0; Plant response rating, Crabgrass [16, 17]: 2; Plant response rating, Crabgrass [16, 18]: 2; Plant response rating, Crabgrass [16, 19]: 2; Crabgrass plant response rating (0 to 10 scale) ([16]; Preemergence, Rate 125 g/ha): 7; Crabgrass plant response rating ([16]; Preemergence, Rate 250 g/ha): 7; Crabgrass plant response rating ([16]; Preemergence, Rate 500 g/ha): 9; Crabgrass plant response rating ([16]; Rate 62 g/ha, Postemergence): 0; Plant response rating, Crabgrass [16, 20]: 5
